# Assay results from PubChem BioAssay (NCI).
#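 Values below derive from 48-hour exposures of cells grown in 96-well plates, with endpoints linearly interpolated between the two concentrations bracketing the appropriate inhibition level. Abbreviation: GI50, concentration required for 50% inhibition of growth. Definition used: TGI = concentration required for complete inhibition of growth.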
# Key:
# Assay in all cases: DTP human tumour cell line panel, 48 h
# SF-268 CNS = test system: SF-268 CNS
# SN12C renal = test system: SN12C renal
# UO-31 renal = test system: UO-31 renal
# UACC-257 melanoma = test system: UACC-257 melanoma
# SK-MEL-28 melanoma = test system: SK-MEL-28 melanoma
# T-47D breast = test system: T-47D breast
# HT29 colon = test system: HT29 colon
# NCI-H460 lung = test system: NCI-H460 lung
# SK-MEL-2 melanoma = test system: SK-MEL-2 melanoma
# NCI-H226 lung = test system: NCI-H226 lung
# HL-60(TB) leukemia = test system: HL-60(TB) leukemia
# RXF 393 renal = test system: RXF 393 renal
# HOP-62 NSCLC = test system: HOP-62 NSCLC
# HCT-15 colon = test system: HCT-15 colon
# UACC-62 melanoma = test system: UACC-62 melanoma
# HOP-92 NSCLC = test system: HOP-92 NSCLC
# HCC-2998 colon = test system: HCC-2998 colon
# M14 melanoma = test system: M14 melanoma
# SF-295 CNS = test system: SF-295 CNS
# SNB-19 CNS = test system: SNB-19 CNS
# U251 CNS = test system: U251 CNS
# ACHN renal = test system: ACHN renal
# OVCAR-4 ovarian = test system: OVCAR-4 ovarian
# MOLT-4 leukemia = test system: MOLT-4 leukemia
# MDA-MB-468 breast = test system: MDA-MB-468 breast
# OVCAR-5 ovarian = test system: OVCAR-5 ovarian
# PC-3 prostate = test system: PC-3 prostate
# MCF7 breast = test system: MCF7 breast
# IGROV1 ovarian = test system: IGROV1 ovarian
# LOX IMVI melanoma = test system: LOX IMVI melanoma
# OVCAR-3 ovarian = test system: OVCAR-3 ovarian
# MDA-MB-435 = test system: MDA-MB-435
# SR leukemia = test system: SR leukemia
# HS 578T breast = test system: HS 578T breast
# SK-MEL-5 melanoma = test system: SK-MEL-5 melanoma
# SNB-75 CNS = test system: SNB-75 CNS
# TK-10 renal = test system: TK-10 renal
# A498 renal = test system: A498 renal
# HCT-116 colon = test system: HCT-116 colon
# SF-539 CNS = test system: SF-539 CNS
# CAKI-1 renal = test system: CAKI-1 renal
# A549 NSCLC = test system: A549 NSCLC
# SK-OV-3 ovarian = test system: SK-OV-3 ovarian
# K-562 leukemia = test system: K-562 leukemia
# 786-0 renal = test system: 786-0 renal
# KM12 colon = test system: KM12 colon
# DU-145 prostate = test system: DU-145 prostate
# CCRF-CEM leukemia = test system: CCRF-CEM leukemia
# SW-620 colon = test system: SW-620 colon
# OVCAR-8 ovarian = test system: OVCAR-8 ovarian
# BT-549 breast = test system: BT-549 breast
# EKVX NSCLC = test system: EKVX NSCLC
# COLO 205 colon = test system: COLO 205 colon
# NCI-H23 lung = test system: NCI-H23 lung
# MDA-MB-231 breast = test system: MDA-MB-231 breast
# MALME-3M melanoma = test system: MALME-3M melanoma
# NCI/ADR-RES ovarian = test system: NCI/ADR-RES ovarian
# RPMI-8226 leukemia = test system: RPMI-8226 leukemia
# NCI-H522 lung = test system: NCI-H522 lung
smiles,measurement,setting,value
COc1cc2c(c(OC)c1OC)C(=O)CC(c1cccc(NC(=O)c3cc(NC(=O)[C@H](C)N)ccc3Cl)c1)O2 (stereo partly drawn),GI50,SF-268 CNS,18 µM
same,TGI,SF-268 CNS,42.8 µM
same,GI50,SN12C renal,14.1 µM
same,TGI,SN12C renal,30.9 µM
same,GI50,UO-31 renal,12 µM
same,TGI,UO-31 renal,24.7 µM
same,GI50,UACC-257 melanoma,14.4 µM
same,TGI,UACC-257 melanoma,29.5 µM
same,GI50,SK-MEL-28 melanoma,16.6 µM
same,TGI,SK-MEL-28 melanoma,30.2 µM
same,GI50,T-47D breast,8.07 µM
same,TGI,T-47D breast,29 µM
same,GI50,HT29 colon,18.6 µM
same,TGI,HT29 colon,37.2 µM
same,GI50,NCI-H460 lung,15.3 µM
same,TGI,NCI-H460 lung,30.6 µM
same,GI50,SK-MEL-2 melanoma,14.8 µM
same,TGI,SK-MEL-2 melanoma,33.2 µM
same,GI50,NCI-H226 lung,16.8 µM
same,TGI,NCI-H226 lung,38.6 µM
same,GI50,HL-60(TB) leukemia,18.8 µM
same,TGI,HL-60(TB) leukemia,37.5 µM
same,GI50,RXF 393 renal,18.6 µM
same,TGI,RXF 393 renal,37.1 µM
same,GI50,HOP-62 NSCLC,15.1 µM
same,TGI,HOP-62 NSCLC,30.6 µM
same,GI50,HCT-15 colon,12 µM
same,TGI,HCT-15 colon,26.9 µM
same,GI50,UACC-62 melanoma,12.3 µM
same,TGI,UACC-62 melanoma,24.9 µM
same,GI50,HOP-92 NSCLC,14.5 µM
same,TGI,HOP-92 NSCLC,48.9 µM
same,GI50,HCC-2998 colon,16.9 µM
same,TGI,HCC-2998 colon,31.3 µM
same,GI50,M14 melanoma,15.5 µM
same,TGI,M14 melanoma,32.6 µM
same,GI50,SF-295 CNS,16.3 µM
same,TGI,SF-295 CNS,29.9 µM
same,GI50,SNB-19 CNS,15.8 µM
same,TGI,SNB-19 CNS,29.2 µM
same,GI50,U251 CNS,13.9 µM
same,TGI,U251 CNS,28 µM
same,GI50,ACHN renal,15.9 µM
same,TGI,ACHN renal,31 µM
same,GI50,OVCAR-4 ovarian,15.6 µM
same,TGI,OVCAR-4 ovarian,47 µM
same,GI50,MOLT-4 leukemia,11 µM
same,TGI,MOLT-4 leukemia,34.6 µM
same,GI50,MDA-MB-468 breast,13.5 µM
same,TGI,MDA-MB-468 breast,28.5 µM
same,GI50,OVCAR-5 ovarian,18.3 µM
same,TGI,OVCAR-5 ovarian,34.6 µM
same,GI50,PC-3 prostate,17.2 µM
same,TGI,PC-3 prostate,69.5 µM
same,GI50,MCF7 breast,12.9 µM
same,TGI,MCF7 breast,26.8 µM
same,GI50,IGROV1 ovarian,16.6 µM
same,TGI,IGROV1 ovarian,32.9 µM
same,GI50,LOX IMVI melanoma,14.5 µM
same,TGI,LOX IMVI melanoma,29.6 µM
same,GI50,OVCAR-3 ovarian,17.5 µM
same,TGI,OVCAR-3 ovarian,46.7 µM
same,GI50,MDA-MB-435,7.81 µM
same,TGI,MDA-MB-435,21.4 µM
same,GI50,SR leukemia,5.45 µM
same,TGI,SR leukemia,39.2 µM
same,GI50,HS 578T breast,20 µM
same,TGI,HS 578T breast,59.3 µM
same,GI50,SK-MEL-5 melanoma,15.5 µM
same,TGI,SK-MEL-5 melanoma,29.4 µM
same,GI50,SNB-75 CNS,13.3 µM
same,TGI,SNB-75 CNS,65.1 µM
same,GI50,TK-10 renal,19.8 µM
same,TGI,TK-10 renal,42.7 µM
same,GI50,A498 renal,26 µM
same,TGI,A498 renal,90.5 µM
same,GI50,HCT-116 colon,17.5 µM
same,TGI,HCT-116 colon,35.6 µM
same,GI50,SF-539 CNS,15.5 µM
same,TGI,SF-539 CNS,28.8 µM
same,GI50,CAKI-1 renal,32.7 µM
same,TGI,CAKI-1 renal,> 100 µM
same,GI50,A549 NSCLC,15.9 µM
same,TGI,A549 NSCLC,33.3 µM
same,GI50,SK-OV-3 ovarian,18.3 µM
same,TGI,SK-OV-3 ovarian,42.2 µM
same,GI50,K-562 leukemia,7.31 µM
same,TGI,K-562 leukemia,91.9 µM
same,GI50,786-0 renal,19.1 µM
same,TGI,786-0 renal,36.7 µM
same,GI50,KM12 colon,19.3 µM
same,TGI,KM12 colon,37.9 µM
same,GI50,DU-145 prostate,17.5 µM
same,TGI,DU-145 prostate,34.5 µM
same,GI50,CCRF-CEM leukemia,18.5 µM
same,TGI,CCRF-CEM leukemia,65 µM
same,GI50,SW-620 colon,15.7 µM
same,TGI,SW-620 colon,30.2 µM
same,GI50,OVCAR-8 ovarian,16.1 µM
same,TGI,OVCAR-8 ovarian,41.7 µM
same,GI50,BT-549 breast,15 µM
same,TGI,BT-549 breast,32 µM
same,GI50,EKVX NSCLC,17.2 µM
same,TGI,EKVX NSCLC,35 µM
same,GI50,COLO 205 colon,17.1 µM
same,TGI,COLO 205 colon,33.2 µM
same,GI50,NCI-H23 lung,15.6 µM
same,TGI,NCI-H23 lung,31.2 µM
same,GI50,MDA-MB-231 breast,14.6 µM
same,TGI,MDA-MB-231 breast,28.5 µM
same,GI50,MALME-3M melanoma,14.2 µM
same,TGI,MALME-3M melanoma,27.7 µM
same,GI50,NCI/ADR-RES ovarian,16.2 µM
same,TGI,NCI/ADR-RES ovarian,47 µM
same,GI50,RPMI-8226 leukemia,7.29 µM
same,TGI,RPMI-8226 leukemia,51.7 µM
same,GI50,NCI-H522 lung,11.3 µM
same,TGI,NCI-H522 lung,26 µM
